Measured values published in US11890279B2, “Quinolines that modulate SERCA and their use for treating disease” (Neurodon Corporation, priority 2020, dated 2024).

Key:
ob/ob mice = test: Glucose (GTT) and insulin (ITT) tolerance tests in ob/ob mice; type: in vivo, mouse; conditions: vs vehicle
Protocol: For the GTT, D-glucose dissolved in 0.9% NaCl was delivered intraperitoneally at a dose of 1 g/kg. The blood glucose level was measured 0, 15, 30, 60, 90, and 120 min after glucose administration. For the ITT, insulin was administered intraperitoneally at a dose of 1 IU/kg. The blood glucose level was measured 0, 15, 30, 60, 90, and 120 min after insulin administration. Glucose levels were measured in blood samples drawn from the tail vein using OneTouch Ultra 2 Meter (LifeScan, Inc.).

6-OHDA-lesioned rats = test: Behavioral tests in the 6-OHDA-lesioned rat model of Parkinson's disease; type: in vivo; conditions: 10 mg/kg IP once daily
Source text: Behavioral tests in the 6-hydroxydopamine (6-OHDA)-lesioned rat model of Parkinson's disease. Male Wistar rats were trained for both the stepping and initiation time (IT) tests 6 days before treatment with 6-OHDA or NaCl (day −6). 5 days before treatment with 6-OHDA, animals from groups 1 to 3 were given vehicles [NaCl or a mixture of DMSO (10%)/tween 80 (10%)/water (80%)] once daily for 16 days. […] All the treatments were given via the IP route, once daily, Sunday excluded. Surgery was performed on DO under ketamine (50 mg/kg) and xylazine (10 mg/kg). Animals received a unilateral injection of 6-OHDA, 6 μl (sigma Aldrich) in the left substantia nigra pars compacta. During surgery, local analgesia was achieved using subcutaneous injections of lidocaine. At the end of surgery, animals were treated with buprenorphine (0.05 mg/kg, S.C.). […] For the IT test, only one of the two forelimbs was left free to move and the time that is necessary to initiate the movement toward the plane surface was recorded, using 180 sec as break-off point. […] In the stepping test, the rat was held by the experimenter and only one of the two forelimbs was left free to move above a plane surface. The other hand fixed the forelimb not to be monitored with one paw touching the table. The animal was then be moved slowly forward by the experimenter. The number of adjusting steps was counted for the right paw. […] In the cylinder test, animals were placed in a Plexiglas cylinder and, immediately, videotaped for 15 min. During this time, the numbers of contacts made on the cylinder wall with both the ipsilateral, the contralateral, and the two paws simultaneously (double contacts) were recorded and then expressed as a percentage of the total number of contacts.

Question: For `Cc1ccc2cccc(NC(=O)c3ccc(OC(C)C)cc3)c2n1` [Compound A12, 4-Isopropoxy-N-(2-methylquinolin-8-yl)benzamide], which “hyperglycemic response to i.p. glucose challenge (GTT)” value (ob/ob mice; day 7 post-injection) is on record?
Answer: significantly reduced

Question: And the “insulin-stimulated glucose deposal (ITT)” value (ob/ob mice; day 10 post-injection)?
Answer: strongly enhanced

Question: And the “initiation time (IT test)” value (6-OHDA-lesioned rats)?
Answer: reduced

Question: And the “number of adjusting steps (stepping test)” value (6-OHDA-lesioned rats)?
Answer: increased

Question: And the “number of contacts (cylinder test)” value (6-OHDA-lesioned rats)?
Answer: increased
